This note sets out measurements from PMC2650494 (Bioorganic & medicinal chemistry, 2008).

One data set addresses gp120-CD4 (Human immunodeficiency virus type 1 group M subtype B, UniProt P35961). Format: binding, HIV-1. Particulars: 1H NMR; 40:1 peptide:gp120-CD4.

Non-standard residues stand in square brackets, D forms with d. Residues, ends and D or L forms follow the SMILES beside them. *: point of attachment. Phe(4-CH2SO3H) = N[C@@H](Cc1ccc(CS(=O)(=O)O)cc1)C(=O)O; X1 = [N-]=[N+]=NCCOCCOCC*

By solubility is commonly meant the dissolved amount per volume that the medium holds. The low end stands for little dissolved substance, the high end for much dissolved substance.

`CC[C@H](C)[C@H](NC(=O)[C@H](CC(=O)O)NC(=O)[C@H](Cc1ccc(CS(=O)(=O)O)cc1)NC(=O)[C@@H](NC(=O)[C@@H]1CCCN1C(=O)[C@H](CO)NC(=O)[C@H](CO)NC(=O)[C@@H](NC(=O)[C@H](CCC(N)=O)NC(=O)[C@H](Cc1ccc(CS(=O)(=O)O)cc1)NC(=O)[C@@H](N)CC(=O)O)C(C)C)[C@@H](C)CC)C(=O)N[C@@H](CC(N)=O)C(=O)N[C@@H](Cc1ccc(CS(=O)(=O)O)cc1)C(=O)N[C@@H](Cc1ccc(O)cc1)C(=O)N[C@H](C(=O)N[C@@H](CO)C(=O)N[C@@H](CCC(=O)O)C(=O)N1CCC[C@H]1C(=O)N[C@@H](COCCOCCOCCN=[N+]=[N-])C(=O)O)[C@@H](C)O` [compound 11] (H-D[Phe(4-CH2SO3H)]QVSSPI[Phe(4-CH2SO3H)]DIN[Phe(4-CH2SO3H)]YTSEPS(X1)-OH; N-terminus and C-terminus assumed) came in with a solubility in the data set “Water solubility” above 30 mM. Further, on gp120-CD4, the “Increase in line width between free and bound peptides, 10δ” value was determined as 2.4 Hz; the “Increase in line width between free and bound peptides, 14δ” value is 2.8 Hz; the “Increase in line width between free and bound peptides, 15δ” value was found to be 1.9 Hz; the “Increase in line width between free and bound peptides, 15ε” value was found to be 3.2 Hz.
